Results from patent publication US9000012B2 (priority 2009, dated 2015).
Where two headings read alike, the source gives them in different places.

Tests used:
[1] = logP of the compounds of table 1; format: physicochemical
Phytophthora infestans = format: in vivo, Phytophthora infestans on tomato; conditions: preventive spray on young tomato plants, 500 ppm of active ingredient, inoculated one day after treatment, evaluated 7 days after inoculation; 0% = untreated control, 100% = no disease
[2] = logP of the compounds of table 1; format: physicochemical; remark: listed apart in the source

Structure (SMILES) | logP [2] | further results
CCON(C)C(=O)C(=NOCc1csc(NC(=O)OCCOc2ccccc2)n1)c1ccccc1 [compound 209] | – | logP [1]: 3.62
C#CCCOC(=O)Nc1cccc(CON=C(C(=O)N(C)C)c2ccccc2)n1 [Example 100] | 1.83 | Efficacy (Phytophthora infestans): 70%
CC(Oc1ccccc1)C(=O)Nc1nc(CON=C(C(=O)N(C)C)c2ccccc2)cs1 (stereo not shown) [Example 130] | 3.21 | Efficacy (Phytophthora infestans): 100%
CN(C)C(=O)C(=NOCc1cccc(NC(=O)C2COc3ccccc3O2)n1)c1ccccc1 (stereo not shown) [Example 109] | 3.42 | Efficacy (Phytophthora infestans): 98%
CCON(C)C(=O)C(=NOCc1cccc(NC(=O)OCCOc2ccccc2)n1)c1ccccc1 [compound 207] | – | logP [1]: 3.89
CCON(C)C(=O)C(=NOCc1cccc(NC(=O)Cc2ccc(OC)cc2)n1)c1ccccc1 [compound 206] | – | logP [1]: 3.37
CN(C)C(=O)C(=NOCc1cccc(NC(=O)C(F)(F)Oc2ccccc2)n1)c1ccccc1 [Example 110] | 3.73 | Efficacy (Phytophthora infestans): 70%
CNC(=O)C(=NOCc1cccc(NC(=O)C2COc3ccccc3O2)n1)c1ccccc1 (stereo not shown) [Example 75] | 3.06 | Efficacy (Phytophthora infestans): 85%
CCON(C)C(=O)C(=NOCc1csc(NC(=O)Cc2ccc(OC)cc2)n1)c1ccccc1 [compound 210] | – | logP [1]: 3.23
CCON(C)C(=O)C(=NOCc1cccc(NC(=O)c2ccc(Cl)cc2)n1)c1ccccc1 [compound 204] | – | logP [1]: 4.01
CCON(C)C(=O)C(=NOCc1csc(N)n1)c1ccccc1 [compound 208] | – | logP [1]: 1.35
C#CCCOC(=O)Nc1cccc(CON=C(C(=N)N(C)N)c2ccccc2)n1 [compound 308] | – | logP [1]: 1.77
CCON(C)C(=O)C(=NOCc1cccc(NC(=O)C2COc3ccccc3O2)n1)c1ccccc1 (stereo not shown) [compound 203] | – | logP [1]: 3.83
CCON(C)C(=O)C(=NOCc1cccc(NC(=O)C(C)Oc2ccccc2)n1)c1ccccc1 (stereo not shown) [compound 205] | – | logP [1]: 3.94
CC(Oc1ccccc1)C(=O)Nc1cccc(CON=C(C(=O)N(C)C)c2ccccc2)n1 (stereo not shown) [Example 111] | 3.50 | Efficacy (Phytophthora infestans): 92%
C#CCCOC(=O)Nc1cccc(CON=C(C(=O)N(C)CC)c2ccccc2)n1 [compound 143] | 3.04 | –
CCN(C)C(=O)C(=NOCc1csc(NC(=O)C(C)Oc2ccccc2)n1)c1ccccc1 (stereo not shown) [compound 146] | 3.48 | –
CC#CCOC(=O)Nc1cccc(CON=C(C(=O)OC)c2ccccc2)n1 [compound 45] | 3.67 | –
CCN(C)C(=O)C(=NOCc1cccc(NC(=O)OCCOc2ccccc2)n1)c1ccccc1 [compound 141] | 3.76 | –
C#CCC(C)OC(=O)Nc1nc(CON=C(C(=O)N(C)CC)c2ccccc2)cs1 (stereo not shown) [compound 145] | 3.09 | –
CCN(C)C(=O)C(=NOCc1csc(NC(=O)OCCOc2ccccc2)n1)c1ccccc1 [compound 151] | 3.48 | –
CCCCCOC(=O)Nc1cccc(CON=C(C(=O)N(C)C)c2ccccc2)n1 [Example 99] | 3.96 | Efficacy (Phytophthora infestans): 95%
CC#CCOC(=O)Nc1cccc(CON=C(C(=O)NC)c2ccccc2)n1 [compound 83] | 2.59 | –
C#CCC(C)OC(=O)Nc1cccc(CON=C(C(=O)N(C)C)c2ccccc2)n1 (stereo not shown) [Example 101] | 3.07 | Efficacy (Phytophthora infestans): 95%
C=CCCOC(=O)Nc1cccc(CON=C(C(=O)OC)c2ccccc2)n1 [compound 42] | 3.94 | –
C=CCCOC(=O)Nc1cccc(CON=C(C(=O)NC)c2ccccc2)n1 [compound 80] | 2.77 | –
CNC(=O)C(=NOCc1cccc(NC(=O)c2cccs2)n1)c1ccccc1 [compound 81] | 2.57 | –

Structure (SMILES) | logP [2] | further results
C#CCCOC(=O)Nc1nc(CON=C(C(=O)N(C)CC)c2ccccc2)cs1 [compound 152] | 2.80 | –
COC(=O)C(=NOCc1cccc(NCCC2CCCCC2)n1)c1ccccc1 [compound 44] | 3.04 | –
COc1ccc(CC(=O)Nc2cccc(CON=C(C(=O)N(C)C)c3ccccc3)n2)cc1 [Example 112] | 3.00 | Efficacy (Phytophthora infestans): 100%
C#CCCCCOC(=O)Nc1nc(CON=C(C(=O)N(C)OCC)c2ccccc2)cs1 [compound 211] | – | logP [1]: 3.44
C#CCCOC(=O)Nc1cccc(CON=C(C(=N)SC)c2ccccc2)n1 [compound 309] | – | logP [1]: 3.02
CNC(=O)C(=NOCc1cccc(NCCC2CCCCC2)n1)c1ccccc1 [compound 82] | 2.23 | –
CCCCCOC(=O)Nc1cccc(CON=C(C(=O)OC)c2ccccc2)n1 [compound 27] | 3.69 | –
CCN(C)C(=O)C(=NOCc1csc(N)n1)c1ccccc1 [compound 144] | 1.34 | –
C=CCCOC(=O)Nc1cccc(CON=C(C(=O)N(C)C)c2ccccc2)n1 [compound 116] | 3.19 | –
C#CCCOC(=O)Nc1cccc(CON=C(C#N)c2ccccc2)n1 (single isomer, unassigned) [Example 3, but-3-yn-1-yl{6-[({[cyano(phenyl)methylene]amino}oxy)methyl]pyridin-2-yl}carbamate] | – | logP ([2]; read-out: logP): 3.67
CN(C)C(=O)C(=NOCc1cccc(NC(=O)OC(C)(C)C)n1)c1ccccc1 [Example 98] | 3.37 | Efficacy (Phytophthora infestans): 85%
CN(C)C(=O)C(=NOCc1csc(NC(=O)C2COc3ccccc3O2)n1)c1ccccc1 (stereo not shown) [Example 129] | 3.15 | Efficacy (Phytophthora infestans): 92%
CCN(C)C(=O)C(=NOCc1cccc(NC(=O)C(C)Oc2ccccc2)n1)c1ccccc1 (stereo not shown) [compound 136] | 3.78 | –
CCON(C)C(=O)C(=NOCc1cccc(NC(=O)OC(C)(C)C)n1)c1ccccc1 [compound 201] | – | logP [1]: 2.38
CCN(C)C(=O)C(=NOCc1cccc(NC(=O)c2ccc(Cl)cc2)n1)c1ccccc1 [compound 140] | 3.85 | –
COC(=O)C(=NOCc1cccc(NC(=O)C(F)(F)Oc2ccccc2)n1)c1ccccc1 [compound 38] | 4.41 | –
CCN(C)C(=O)C(=NOCc1csc(NC(=O)Cc2ccc(OC)cc2)n1)c1ccccc1 [compound 147] | 3.09 | –
CN(C)C(=O)C(=NOCc1csc(NC(=O)OCCOc2ccccc2)n1)c1ccccc1 [compound 133] | 3.27 | –
CN(C)C(=O)C(=NOCc1cccc(NC(=O)c2ccc(Cl)cc2)n1)c1ccccc1 [compound 114] | 3.57 | –
C#CCCOC(=O)Nc1cccc(CON=C(C(N)=S)c2ccccc2)n1 [compound 310] | – | logP [1]: 2.75
CNC(=O)C(=NOCc1cccc(NC(=O)OC(C)(C)C)n1)c1ccccc1 [compound 62] | 2.88 | –
C#CCCOC(=O)Nc1cccc(CON=C(C(=O)OC)c2ccccc2)n1 [compound 28] | 3.48 | –
COC(=O)C(=NOCc1cccc(NC(=O)c2cccc(F)c2)n1)c1ccccc1 [compound 40] | 3.94 | –
COC(=O)C(=NOCc1cccc(NC(=O)c2cccs2)n1)c1ccccc1 [compound 43] | 3.67 | –
C#CCCCCOC(=O)Nc1cccc(CON=C(C(=O)N(C)OCC)c2ccccc2)n1 [compound 202] | – | logP [1]: 3.71
CCCCCOC(=O)Nc1cccc(CON=C(C(=O)NC)c2ccc(OCc3ccccc3)cc2)n1 [compound 64] | 2.65 | –
